Marks after values point to notes of the source that are not given here.
How the values were obtained:
Type in all cases: in vivo
[1] = tested on: Phakopsora pachyrhizi (the causal agent of Asian soybean rust); experiment: Test A: preventive spray on soybean seedlings, Asian soybean rust, visual disease rating; details: soybean seedlings; for pest or weed control at 10 µg/mL: Phakopsora pachyrhizi, 216 h, read-out: Test A disease control rating
Procedure, shortened: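 Compound in acetone/water (50/50) with 250 ppm PEG400 sprayed to run-off on soybean seedlings; inoculated next day with Phakopsora pachyrhizi spores. Held 24 h at 22° C in saturated atmosphere, then 8 days in a 22° C growth chamber before visual rating as % disease control relative to controls.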

[2] = tested on: Zymoseptoria tritici (the causal agent of wheat leaf blotch); experiment: Test B: preventive spray on wheat seedlings, wheat leaf blotch, visual disease rating; details: wheat seedlings
Text: General protocol for preparing test suspensions for Tests A-D: the test compounds were first dissolved in acetone in an amount equal to 3% of the final volume and then suspended at the desired concentration (in ppm) in acetone and purified water (50/50 mix by volume) containing 250 ppm of the surfactant PEG400 (polyhydric alcohol esters). The resulting test suspensions were then used in Tests A-D.
The test suspension was sprayed to the point of run-off on wheat seedlings. The following day the seedlings were inoculated with a spore suspension of Zymoseptoria tritici (the causal agent of wheat leaf blotch) and incubated in a saturated atmosphere at 24° C. for 48 h, and then moved to a growth chamber at 20° C. for 17 days, after which time visual disease ratings were made.
The test results for Tests A-C presented in Table A below for compounds of Formula 1 illustrate the fungicidal activity of component (a) contributing to the plant disease control utility of compositions comprising component (a) in combination with component (b) according to the present invention. In the Table, a rating of 100 indicates 100% disease control and a rating of 0 indicates no disease control (relative to the controls). A dash (-) indicates the compound was not tested. The test suspensions were sprayed at the concentration listed in the column “Rate in ppm”, unless otherwise indicated. An asterisk “*” next to the rating indicates a 250 ppm test suspension was used, a double asterisk “**” next to the rating indicates a 100 ppm test suspension was used, and a triple asterisk “***” next to the rating indicates a 50 ppm test suspension was used.

[3] = tested on: Puccinia recondita f. sp. tritici (the causal agent of wheat leaf rust); experiment: Test C: preventive spray on wheat seedlings, wheat leaf rust, visual disease rating; details: wheat seedlings; for pest or weed control at 10 µg/mL: Puccinia recondita, 168 h, read-out: Test C disease control rating
Procedure, shortened: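 Wheat seedlings sprayed to run-off with compound in acetone/water (50/50) with 250 ppm PEG400, then inoculated with spores the following day. After 24 h saturated humidity at 20° C. and 6 days in growth chamber at 20° C., disease rated visually as % control relative to untreated controls.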

[4] = 50 ppm test suspension, 100 = 100% disease control, 0 = no control
[5] = 250 ppm test suspension, 100 = 100% disease control
[6] = 10 ppm test suspension, 100 = 100% disease control, 0 = no control
[7] = test suspension 10 ppm, 100 = 100% disease control, 0 = no control

CCOC(=O)c1cnn(CN2CCC(c3noc(C(F)(F)F)n3)CC2)c1 [compound 458]
Test A disease control rating [1, 4]: 0%
Test B disease control rating [2, 5]: 0* %
Test C disease control rating [3, 4]: 0%

CCOC(=O)c1cnn(CCN2CCC(c3noc(C(F)(F)F)n3)CC2)c1 [compound 459]
Test A disease control rating [1, 4]: 0%
Test B disease control rating [2, 5]: 0* %
Test C disease control rating [3, 4]: 0%

CCOC(=O)c1nn(Cc2ccc(-c3noc(C(F)(F)F)n3)cc2)nc1Br [compound 84]
Test A disease control rating ([1]; test suspension 250 ppm): 100%
Test B disease control rating ([2]; test suspension 250 ppm): 66%
Test C disease control rating ([3]; test suspension 250 ppm): 100%

O=C(NCCC(F)(F)F)c1csc(COc2ccc(-c3noc(C(F)(F)F)n3)cc2)n1 [compound 472]
Test A disease control rating [1, 6]: 77%
Test B disease control rating [2, 5]: 22* %
Test C disease control rating [3, 6]: 0%

O=C(NCC(F)(F)F)c1cnn(COc2ccc(-c3noc(C(F)(F)F)n3)cc2)c1 [compound 212]
Test A disease control rating [1, 7]: 100%
Test B disease control rating ([2]; test suspension 250 ppm): 79* %
Test C disease control rating ([3]; test suspension 10 ppm): 100%

FC(F)(F)c1nc(-c2ccc(Cn3nnc4ccccc43)cc2)no1 [compound 92]
Test A disease control rating ([1]; test suspension 250 ppm): 0%
Test B disease control rating ([2]; test suspension 250 ppm): 96%
Test C disease control rating ([3]; test suspension 250 ppm): 100%

COC(=O)c1coc(Cc2ccc(-c3noc(C(F)(F)F)n3)cc2)n1 [Compound 490]
Test A disease control rating [1, 6]: 100%
Test B disease control rating [2, 5]: 94* %
Test C disease control rating [3, 6]: 74%

CCOC(=O)c1cnn(CCCn2nc(-c3noc(C(F)(F)F)n3)ccc2=O)c1 [compound 358]
Test A disease control rating [1, 7]: 0%
Test B disease control rating ([2]; test suspension 250 ppm): 0* %
Test C disease control rating ([3]; test suspension 10 ppm): 0%

Cc1noc(C)c1COc1ccc(-c2noc(C(F)(F)F)n2)cc1 [compound 338]
Test A disease control rating [1, 7]: 99%
Test B disease control rating ([2]; test suspension 250 ppm): 10* %
Test C disease control rating ([3]; test suspension 10 ppm): 0%

COC(CNC(=O)c1coc(Cc2ccc(-c3noc(C(F)(F)F)n3)cc2)n1)OC [compound 278]
Test A disease control rating [1, 7]: 100%
Test B disease control rating ([2]; test suspension 250 ppm): 98* %
Test C disease control rating ([3]; test suspension 10 ppm): 100%

O=C(NCCC(F)(F)F)c1csc(Cc2ccc(-c3noc(C(F)(F)F)n3)cc2)n1 [compound 397]
Test A disease control rating [1, 6]: 100%
Test B disease control rating [2, 5]: 82* %
Test C disease control rating [3, 6]: 98%

N#Cc1ccn(Cc2ccc(-c3noc(C(F)(F)F)n3)cc2)c(=O)c1 [compound 89]
Test A disease control rating ([1]; test suspension 250 ppm): 100%
Test B disease control rating ([2]; test suspension 250 ppm): 83%
Test C disease control rating ([3]; test suspension 250 ppm): 100%

FC(F)(F)c1nc(-c2ccc(Cn3ncc4cnc(Cl)nc43)cc2)no1 [compound 152]
Test A disease control rating [1, 7]: 100%
Test C disease control rating ([3]; test suspension 10 ppm): 100%

Cc1nn(Cc2ccc(-c3noc(C(F)(F)F)n3)cc2)c2cccc(Br)c12 [compound 34]
Test A disease control rating [1, 7]: 71%
Test C disease control rating ([3]; test suspension 10 ppm): 55%

CNC(=O)c1cnn(Cc2ccc(-c3noc(C(F)(F)F)n3)cc2)c1 [compound 61]
Test A disease control rating [1, 7]: 100%
Test C disease control rating ([3]; test suspension 10 ppm): 100%

Cc1cc(C(=O)NCC#N)nn1Cc1ccc(-c2noc(C(F)(F)F)n2)cc1 [compound 181]
Test A disease control rating [1, 7]: 100%
Test C disease control rating ([3]; test suspension 10 ppm): 100%

O=C(NCc1cccnc1)c1cnn(Cc2ccc(-c3noc(C(F)(F)F)n3)cc2)c1 [compound 483]
Test A disease control rating [1, 6]: 100%
Test C disease control rating [3, 6]: 54%

O=[N+]([O-])c1cnn(Cc2ccc(-c3noc(C(F)(F)F)n3)cc2)c1 [compound 382]
Test A disease control rating [1, 6]: 100%
Test C disease control rating [3, 6]: 96%

COc1ccc2c(cnn2Cc2ccc(-c3noc(C(F)(F)F)n3)cc2)c1 [compound 126]
Test A disease control rating ([1]; test suspension 260 ppm): 100%
Test C disease control rating ([3]; test suspension 260 ppm): 100%

Cc1ccc(C(O)c2ccc(-c3noc(C(F)(F)F)n3)cc2)cc1 (stereo not shown) [compound 501]
Test A disease control rating [1, 6]: 100%
Test C disease control rating [3, 6]: 0%

CN(C)C(=O)c1cnn(CCCc2ccc(-c3noc(C(F)(F)F)n3)cc2)c1 [compound 406]
Test A disease control rating [1, 6]: 100%
Test C disease control rating [3, 6]: 93%

N#Cc1cccn(Cc2ccc(-c3noc(C(F)(F)F)n3)cc2)c1=O [compound 417]
Test A disease control rating [1, 6]: 100%
Test C disease control rating [3, 6]: 100%

Cc1nn(Cc2ccc(-c3noc(C(F)(F)F)n3)cc2)c2ccccc12 [compound 99]
Test A disease control rating [1, 7]: 100%
Test C disease control rating ([3]; test suspension 10 ppm): 68%

FC(F)(F)c1nc(-c2ccc(Cn3cc4c(Cl)cc(Br)cc4n3)cc2)no1 [compound 54]
Test A disease control rating [1, 7]: 99%
Test C disease control rating ([3]; test suspension 10 ppm): 68%

N#CCNC(=O)c1cnn(Cc2ccc(-c3noc(C(F)(F)F)n3)cc2)c1 [compound 65]
Test A disease control rating [1, 7]: 100%
Test C disease control rating ([3]; test suspension 10 ppm): 100%

CN(C)C(=O)c1cnn(Cc2ccc(-c3noc(C(F)(F)F)n3)cc2)c1 [compound 62]
Test A disease control rating [1, 7]: 100%
Test C disease control rating ([3]; test suspension 10 ppm): 100%

COC(=O)C1(NC(=O)c2cnn(Cc3ccc(-c4noc(C(F)(F)F)n4)cc3)c2)CC1 [compound 172]
Test A disease control rating [1, 7]: 100%
Test C disease control rating ([3]; test suspension 10 ppm): 99%

CN(CC#N)C(=O)c1cnn(Cc2ccc(-c3noc(C(F)(F)F)n3)cc2)c1 [compound 379]
Test A disease control rating [1, 6]: 100%
Test C disease control rating [3, 6]: 97%

CCCOC(=O)c1cnn(C(C)c2ccc(-c3noc(C(F)(F)F)n3)s2)c1 (stereo not shown) [compound 493]
Test A disease control rating [1, 6]: 100%
Test C disease control rating [3, 6]: 100%

FC(F)(F)c1nc(-c2ccc(Cn3ccc4ncccc43)cc2)no1 [Compound 136, 1-[[4-[5-(trifluoromethyl)-1,2,4-oxadiazol-3-yl]phenyl]methyl]-1H-pyrrolo[3,2-b]pyridine]
pest or weed control at 10 µg/mL [1, 7]: 100%
pest or weed control at 10 µg/mL ([3]; test suspension 10 ppm): 68%

O=C(c1csc(Cc2ccc(-c3noc(C(F)(F)F)n3)cc2)n1)N1CCC(F)(F)C1 [compound 207]
Test A disease control rating [1, 7]: 100%
Test C disease control rating ([3]; test suspension 10 ppm): 86%

CC1(COC(=O)c2cnn(Cc3ccc(-c4noc(C(F)(F)F)n4)cc3)c2)COC1 [compound 269]
Test A disease control rating [1, 7]: 100%
Test C disease control rating ([3]; test suspension 10 ppm): 100%

C#CCOC(=O)c1cnn(Cc2ccc(-c3noc(C(F)(F)F)n3)s2)c1 [compound 190]
Test A disease control rating [1, 7]: 100%
Test C disease control rating ([3]; test suspension 10 ppm): 100%

CC(C)ON=Cc1cnn(Cc2ccc(-c3noc(C(F)(F)F)n3)cc2)c1 [compound 388]
Test A disease control rating [1, 6]: 100%
Test C disease control rating [3, 6]: 100%

FC(F)(F)c1nc(-c2ccc(CN3CCc4ccccc4C3)cc2)no1 [compound 351]
Test A disease control rating [1, 7]: 92%
Test C disease control rating ([3]; test suspension 10 ppm): 67%

Cc1cc(C(=O)OCC#N)nn1Cc1ccc(-c2noc(C(F)(F)F)n2)cc1 [compound 184]
Test A disease control rating [1, 7]: 100%
Test C disease control rating ([3]; test suspension 10 ppm): 55%

CC(COC(=O)c1cnn(Cc2ccc(-c3noc(C(F)(F)F)n3)cc2)c1)=NOC(C)(C)C [compound 220]
Test A disease control rating [1, 7]: 100%
Test C disease control rating ([3]; test suspension 10 ppm): 86%

CN(C)C(=O)C1COC(Cc2ccc(-c3noc(C(F)(F)F)n3)cc2)=N1 (stereo not shown) [Compound 178, 4,5-dihydro-N,N-dimethyl-2-[[4-[5-(trifluoromethyl)-1,2,4-oxadiazol-3-yl]phenyl]methyl]-4-oxazolecarboxamide]
pest or weed control at 10 µg/mL [1, 7]: 96%
pest or weed control at 10 µg/mL ([3]; test suspension 10 ppm): 68%

Source: US20240090503A1, “FUNGICIDAL OXADIAZOLES AND THEIR MIXTURES” (FMC CORPORATION, priority 2020, published 2024)
